pKd: −log10 of the molar value.
Target: Pyruvate dehydrogenase kinase 3 (PDK3) (Homo sapiens, UniProt Q15120)
Test: intrinsic Trp fluorescence quenching of purified PDK3
Assay type: binding

Chain of Pyruvate dehydrogenase kinase 3 (PDK3) (Q15120 whole entry): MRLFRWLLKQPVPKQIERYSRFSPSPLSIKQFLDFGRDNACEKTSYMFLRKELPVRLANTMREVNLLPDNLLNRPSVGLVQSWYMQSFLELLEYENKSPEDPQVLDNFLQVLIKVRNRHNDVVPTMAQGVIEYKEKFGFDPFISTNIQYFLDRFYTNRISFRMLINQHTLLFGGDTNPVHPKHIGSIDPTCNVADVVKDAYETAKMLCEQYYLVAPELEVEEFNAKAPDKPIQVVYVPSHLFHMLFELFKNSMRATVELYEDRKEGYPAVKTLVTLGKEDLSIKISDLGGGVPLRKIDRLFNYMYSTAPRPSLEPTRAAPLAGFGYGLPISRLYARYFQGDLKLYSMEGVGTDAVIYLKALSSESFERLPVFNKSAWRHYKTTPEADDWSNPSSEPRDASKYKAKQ

## O=c1c(O)c(-c2cc(O)c(O)c(O)c2)oc2cc(O)cc(O)c12 [MT, Myricetin]
  pKd: 5.06
